Reference: patent publication US11965039B2, “Compstatin analogues and their medical uses” (priority 2018, dated 2024)
Like-named read-outs stand apart in the source and are kept apart here. Starred links: 1 amine or outer side, 2 acyl side, 3 side chain; linkers in the order of their positions; H or OH if unused. Positions of bridges follow the written chain, without caps; N, C: chain ends. Non-standard residues stand in square brackets, D forms with d. Residues, ends and D or L forms follow the SMILES beside them. Groups on a side chain read outwards from the residue. *: point of attachment. Trp(1-Me) = Cn1cc(C[C@H](N)C(=O)O)c2ccccc21; C18 diacid = O=C(O)CCCCCCCCCCCCCCCCC(=O)*; γGlu = O=C(O)[C@H](CCC(=O)[*:2])N[*:1]; AEEA = NCCOCCOCC(=O)O; Sar = CNCC(=O)O

Key:
[1] = tested on: classical complement pathway; assay: In vitro haemolysis assay (inhibition of classical complement pathway); format: cell-based, human; conditions: human serum, sensitized sheep red blood cells, read-out: IC50, inhibition of hemolysis
Experimental: The in vitro effect of the compounds of the present invention was assessed by measuring their inhibitory effect of the classical complement pathway in a haemolysis assay. Briefly, compounds of the present invention and reference compounds were dissolved in DMSO and diluted in Tris/Casein Assay Buffer (10 mM Tris, 145 mM NaCl, 0.5 mM MgCl2, 0.15 mM CaCl2), and 0.1% W/V Casein, adjusted to pH 7.4) as 9-point serial dilutions in a 96 well plate. Sensitized sheep red blood cells (RBC) coated with rabbit anti-sheep erythrocyte antiserum (Complement Technology, Inc., TX, USA) were washed in Tris/Casein Assay Buffer. […] from each well of diluted compound was added to a 96-well plate containing 50 μL diluted human serum (Complement Technology, Inc., TX, USA) and incubated for 15 minutes at room temperature. The serum dilution factor was optimized for every serum batch to obtain 70-90% of maximal haemolysis using the protocol. Then 50 μL sensitized sheep red blood cells were added to all wells (10^7 per well). After 30 minutes of incubation at 37 QC with gentle agitation, the reaction was stopped by addition of 50 μL Tris STOP Buffer per well (10 mM EDTA, 10 mM Tris, 145 mM NaCl adjusted to pH 7.4). The RBCs were then removed by centrifugation and the resulting supernatant measured for hemolysis by absorbance at 405 nm. The response was normalized relative to a positive and negative control (vehicle) to calculate the IC50 from the concentration response curve using the 4-parameter logistic (4PL) nonlinear model for curve fitting.

[2] = Solubility test at 10 mg/mL (visual inspection and light scattering); format: physicochemical; conditions: for Solubility, Condition 1: Acetate pH 4; for Solubility, Condition 2: Acetate pH 5; for Solubility, Condition 3: Phosphate pH 6; for Solubility, Condition 4: Phosphate pH 7; for Solubility, Condition 5: Phosphate pH 7.5
Experimental: The solubility of compounds was assessed by measuring light scattering over a pH interval from pH 4 to pH 7.5.
Compounds were dissolved in a stock solution of 20 mg/mL in H2O at pH 2.5 or pH 10. These stock solutions were diluted 1:1 with 200 mM buffered solution to reach a final solution of 10 mg/mL compound in 100 mM buffer. The 5 investigated conditions were (1) acetate pH 4.0, (2) acetate pH 5.0, (3) phosphate pH 6.0, (4) phosphate pH 7 and (5) phosphate pH 7.5.
Visual inspection included manually checking the 96 well plate for wells that are clear or non-clear. In addition to this a picture of the 96 well plate is taken.
Absorbance was measured at four wavelengths: 280 nm, 325 nm, 340 nm and 360 nm in an UV transparent 96 well microplate in a SpectraMax 190 microplate reader (Molecular Devices).
The criteria for this was a combination of visual inspection and light scattering not exceeding 0.1 AU, where values below 0.1 AU are good in visually clear samples.

Structure (SMILES): CC[C@H](C)[C@@H]1NC(=O)[C@@H](NC(=O)[C@@H](NC(=O)[C@H](CCCCN)NC(=O)[C@H](CCC(=O)O)NC(=O)[C@H](CCCCN)NC(C)=O)[C@@H](C)CC)CSSC[C@@H](C(=O)N[C@H](C(=O)N[C@@H](CCC(=O)O)C(=O)N[C@@H](CCCCN)C(=O)N[C@@H](CCC(=O)O)C(N)=O)[C@@H](C)O)NC(=O)[C@H](CCCNC(=N)N)NC(=O)[C@H](Cc2c[nH]cn2)NC(=O)[C@H](CCC(=O)O)NC(=O)CNC(=O)[C@H](Cc2c[nH]c3ccccc23)NC(=O)[C@H](CC(=O)O)NC(=O)[C@H](CCC(N)=O)NC(=O)[C@H](Cc2c[nH]c3ccccc23)NC1=O [Compound 37] (Ac-KEKICIWQDWGEHRCTEKE-NH2; disulfide 5-15)
- IC50 ([1]; Table 3, given as upper bounds): < 0.25 µM

Structure (SMILES): CC[C@H](C)[C@H](NC(C)=O)C(=O)N[C@H]1CSSC[C@@H](C(=O)N[C@H](C(=O)N[C@@H](CCC(=O)O)C(=O)NCC(=O)N[C@@H](CCCCNC(=O)COCCOCCNC(=O)COCCOCCNC(=O)CC[C@H](NC(=O)CCCCCCCCCCCCCCCCC(=O)O)C(=O)O)C(N)=O)[C@@H](C)O)NC(=O)[C@H](CCCNC(=N)N)NC(=O)[C@H](Cc2c[nH]cn2)NC(=O)[C@H](CCC(=O)O)NC(=O)CNC(=O)[C@H](Cc2c[nH]c3ccccc23)NC(=O)[C@H](CC(=O)O)NC(=O)[C@H](CCC(N)=O)NC(=O)[C@H](Cc2c[nH]c3ccccc23)NC(=O)[C@H]([C@@H](C)CC)NC1=O [Compound 96] (Ac-ICIWQDWGEHRCTEGK([AEEA-AEEA-γGlu-C18 diacid])-NH2; disulfide 2-12)
- IC50 ([1]; Table 3, given as upper bounds): < 1 µM

Structure (SMILES): CC[C@H](C)[C@H](NC(C)=O)C(=O)N[C@H]1CSSC[C@@H](C(=O)N[C@H](C(N)=O)[C@@H](C)O)NC(=O)[C@H](CCCNC(=N)N)NC(=O)[C@H](Cc2c[nH]cn2)NC(=O)[C@H](CCC(=O)O)NC(=O)CNC(=O)[C@H](Cc2c[nH]c3ccccc23)NC(=O)[C@H](CC(=O)O)NC(=O)[C@H](CCC(N)=O)NC(=O)[C@H](Cc2cn(C)c3ccccc23)NC(=O)[C@H]([C@@H](C)CC)NC1=O [Compound 4] (Ac-ICI[Trp(1-Me)]QDWGEHRCT-NH2; disulfide 2-12)
- IC50 ([1]; Table 3, given as upper bounds): < 0.1 µM

Structure (SMILES): CC[C@H](C)[C@H](NC(C)=O)C(=O)N[C@H]1CSSC[C@@H](C(=O)N[C@H](C(N)=O)[C@@H](C)O)NC(=O)[C@H](CCCNC(=N)N)NC(=O)[C@H](Cc2c[nH]cn2)NC(=O)[C@H](Cc2c[nH]cn2)NC(=O)CNC(=O)[C@H](Cc2c[nH]c3ccccc23)NC(=O)[C@H](CC(=O)O)NC(=O)[C@H](CCC(N)=O)NC(=O)[C@H](C(C)C)NC(=O)[C@H](C(C)C)NC1=O [Ac-compstatin, reference compound]
- IC50 ([1]; Table 3, cells printed in μM): > 5 µM

Structure (SMILES): CC[C@H](C)[C@@H]1NC(=O)[C@@H](NC(=O)[C@H](Cc2ccccc2)NC(=O)[C@H](CCC(=O)O)NC(C)=O)CSSC[C@@H](C(=O)N(C)CC(=O)N[C@@H](CCC(=O)O)C(=O)N[C@@H](C)C(=O)NCCOCCOCC(=O)NCCOCCOCC(=O)N[C@@H](CCCCNC(=O)CC[C@H](NC(=O)CNC(=O)CC[C@H](NC(=O)CCCCCCCCCCCCCCCCC(=O)O)C(=O)O)C(=O)O)C(N)=O)NC(=O)[C@H](CCCNC(=N)N)NC(=O)[C@H](Cc2c[nH]cn2)NC(=O)[C@H](CCC(=O)O)NC(=O)CNC(=O)[C@H](Cc2c[nH]c3ccccc23)NC(=O)[C@H](CC(=O)O)NC(=O)[C@H](CCC(N)=O)NC(=O)[C@H](Cc2cn(C)c3ccccc23)NC1=O [Compound 145] (Ac-EFCI[Trp(1-Me)]QDWGEHRC[Sar]EA[AEEA][AEEA]K([γGlu-Gly-γGlu-C18 diacid])-NH2; disulfide 3-13)
- IC50 ([1]; Table 3, given as upper bounds): < 0.1 µM

Structure (SMILES): CC[C@H](C)[C@@H]1NC(=O)[C@@H](NC(=O)[C@H](Cc2ccccc2)NC(=O)[C@H](CCC(=O)O)NC(=O)[C@H](CO)NC(C)=O)CSSC[C@@H](C(=O)N(C)CC(=O)N[C@@H](CCC(=O)O)C(=O)N[C@@H](C)C(N)=O)NC(=O)[C@H](CCCNC(=N)N)NC(=O)[C@H](Cc2c[nH]cn2)NC(=O)[C@H](CCC(=O)O)NC(=O)CNC(=O)[C@H](Cc2c[nH]c3ccccc23)NC(=O)[C@H](CC(=O)O)NC(=O)[C@H](CCC(N)=O)NC(=O)[C@H](Cc2cn(C)c3ccccc23)NC1=O [Compound 75] (Ac-SEFCI[Trp(1-Me)]QDWGEHRC[Sar]EA-NH2; disulfide 4-14)
- IC50 ([1]; Table 3, given as upper bounds): < 0.1 µM

Structure (SMILES): CC[C@H](C)[C@@H]1NC(=O)[C@@H](NC(=O)[C@H](Cc2ccc(O)cc2)NC(=O)[C@H](CCC(=O)O)NC(=O)CNC(=O)[C@H](CO)NC(=O)[C@H](C)NC(C)=O)CSSC[C@@H](C(=O)N(C)CC(=O)N[C@@H](CCC(=O)O)C(=O)NCC(=O)N[C@@H](CCC(=O)O)C(=O)N[C@@H](CCCCNC(=O)CC[C@H](NC(=O)CNC(=O)CC[C@H](NC(=O)CCCCCCCCCCCCCCCCC(=O)O)C(=O)O)C(=O)O)C(N)=O)NC(=O)[C@H](CCCNC(=N)N)NC(=O)[C@H](Cc2c[nH]cn2)NC(=O)[C@H](CCC(=O)O)NC(=O)CNC(=O)[C@H](Cc2c[nH]c3ccccc23)NC(=O)[C@H](CC(=O)O)NC(=O)[C@H](CCC(N)=O)NC(=O)[C@H](Cc2cn(C)c3ccccc23)NC1=O [Compound 113] (Ac-ASGEYCI[Trp(1-Me)]QDWGEHRC[Sar]EGEK([γGlu-Gly-γGlu-C18 diacid])-NH2; disulfide 6-16)
- IC50 ([1]; Table 3, given as upper bounds): < 0.5 µM

Structure (SMILES): CC[C@H](C)[C@@H]1NC(=O)[C@@H](NC(=O)[C@H](Cc2ccc(O)cc2)NC(=O)[C@H](CCC(=O)O)NC(=O)[C@H](CO)NC(C)=O)CSSC[C@@H](C(=O)N(C)CC(=O)N[C@@H](CCC(=O)O)C(=O)NCC(=O)N[C@@H](CCC(=O)O)C(=O)N[C@@H](CCCCNC(=O)CC[C@H](NC(=O)[C@H](CCCCN)NC(=O)CC[C@H](NC(=O)CCCCCCCCCCCCCCCCC(=O)O)C(=O)O)C(=O)O)C(N)=O)NC(=O)[C@H](CCCNC(=N)N)NC(=O)[C@H](Cc2c[nH]cn2)NC(=O)[C@H](CCC(=O)O)NC(=O)CNC(=O)[C@H](Cc2c[nH]c3ccccc23)NC(=O)[C@H](CC(=O)O)NC(=O)[C@H](CCC(N)=O)NC(=O)[C@H](Cc2cn(C)c3ccccc23)NC1=O [Compound 116] (Ac-SEYCI[Trp(1-Me)]QDWGEHRC[Sar]EGEK([γGlu-Lys-γGlu-C18 diacid])-NH2; disulfide 4-14)
- Solubility, Condition 1 [2]: − (“−” denotes lack of solubility at the given condition, as UV absorbance at 340 nm exceeds 0.1 AU and/or it is visibly turbid or contains particles)
- Solubility, Condition 2 [2]: − (“−” denotes lack of solubility at the given condition, as UV absorbance at 340 nm exceeds 0.1 AU and/or it is visibly turbid or contains particles)
- Solubility, Condition 3 [2]: + (“+” denotes solubility at the given condition, as determined by UV absorbance being less than 0.1 AU at 340 nm and the sample being clear when manually inspected)
- Solubility, Condition 4 [2]: + (“+” denotes solubility at the given condition, as determined by UV absorbance being less than 0.1 AU at 340 nm and the sample being clear when manually inspected)
- Solubility, Condition 5 [2]: + (“+” denotes solubility at the given condition, as determined by UV absorbance being less than 0.1 AU at 340 nm and the sample being clear when manually inspected)

Structure (SMILES): CC[C@H](C)[C@@H]1NC(=O)[C@@H](NC(=O)[C@H](Cc2ccc(O)cc2)NC(=O)[C@H](C)NC(=O)[C@H](CO)NC(C)=O)CSSC[C@@H](C(=O)N(C)CC(=O)N[C@@H](CCC(=O)O)C(=O)N[C@@H](CCCCNC(=O)CC[C@H](NC(=O)CNC(=O)[C@H](CCCCN)NC(=O)CC[C@H](NC(=O)CCCCCCCCCCCCCCCCC(=O)O)C(=O)O)C(=O)O)C(N)=O)NC(=O)[C@H](CCCNC(=N)N)NC(=O)[C@H](Cc2c[nH]cn2)NC(=O)[C@H](CCC(=O)O)NC(=O)CNC(=O)[C@H](Cc2c[nH]c3ccccc23)NC(=O)[C@H](CC(=O)O)NC(=O)[C@H](CCC(N)=O)NC(=O)[C@H](Cc2cn(C)c3ccccc23)NC1=O [Compound 105] (Ac-SAYCI[Trp(1-Me)]QDWGEHRC[Sar]EK([γGlu-Gly-Lys-γGlu-C18 diacid])-NH2; disulfide 4-14)
- Solubility, Condition 1 [2]: − (“−” denotes lack of solubility at the given condition, as UV absorbance at 340 nm exceeds 0.1 AU and/or it is visibly turbid or contains particles)
- Solubility, Condition 2 [2]: − (“−” denotes lack of solubility at the given condition, as UV absorbance at 340 nm exceeds 0.1 AU and/or it is visibly turbid or contains particles)
- Solubility, Condition 3 [2]: + (“+” denotes solubility at the given condition, as determined by UV absorbance being less than 0.1 AU at 340 nm and the sample being clear when manually inspected)
- Solubility, Condition 4 [2]: + (“+” denotes solubility at the given condition, as determined by UV absorbance being less than 0.1 AU at 340 nm and the sample being clear when manually inspected)
- Solubility, Condition 5 [2]: + (“+” denotes solubility at the given condition, as determined by UV absorbance being less than 0.1 AU at 340 nm and the sample being clear when manually inspected)
